What all share (experiment): DTP human tumour cell line panel, 48 h
The test system of assay [1] is OVCAR-5.
The subject of assay [2] is SNB-19.
In assay [3] the test system is OVCAR-4.
The test system of assay [4] is CCRF-CEM.
Assay [5] concerns NCI-H522.
Assay [6] relates to SW-620.
Assay [7] deals with UACC-257.
For assay [8], the system named is SF-295.
Assay [9] has as its system SR.
For assay [10], the system named is COLO 205.
Assay [11] deals with RPMI-8226.
The test system of assay [12] is K562.
Assay [13] concerns SN12C.
Assay [14] relates to LOX IMVI.
Assay [15] relates to HT-29.
Assay [16] concerns CAKI-1.
In assay [17] the test system is PC-3.
In assay [18] the test system is Hs-578T.
Assay [19] concerns DU-145.

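In this assay, cells in 96-well plates receive the compound at five concentrations for 48 hours. Endpoints are linearly interpolated between the surrounding concentrations. GI50: concentration for 50% inhibition of growth.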 Calls of active or inactive are those of the source. Rule as the data show it: active = GI50 up to about 1.1 µM and inactive = higher.

A word on the GI50: it is the concentration giving 50% growth inhibition.

As to `O=C1NCCS(=O)(=O)N[C@@H](CC2=CC=CCC2)C(=O)N2CCCC12` (stereo not given in full), the GI50 in assay [1], in assay [2], in [3], in [4], in [5] and in assay [6] was > 100 µM (inactive) each time. The GI50 in assay [7], in assay [8], in assay [9], in [10], in assay [11] and in [12] was > 100 µM (inactive) each time. The GI50 in assay [13], in [14] and in assay [15] was > 100 µM (inactive) throughout.

For `COC(=O)/C(=C/CC(N=C(c1ccccc1)c1ccccc1)C(=O)OC)N=C(c1ccccc1)c1ccccc1` (stereo not given), the GI50 in assay [2] is > 100 µM (inactive); in assay [3], > 100 µM (inactive); in assay [16], > 100 µM (inactive); in assay [4] it was > 100 µM (inactive); in assay [5], 38.5 µM (inactive); in [6], > 100 µM (inactive). Besides, the GI50 in [7] was > 100 µM (inactive); in [8], > 100 µM (inactive); in assay [9], > 100 µM (inactive); in [10], > 100 µM (inactive); in [11] it was 79.3 µM (inactive); in assay [12], > 100 µM (inactive). Further, the GI50 in assay [13], in [14] and in assay [15] was > 100 µM (inactive) in each case.

Take `CC1(C)CCC[C@@]2(C)C1CC[C@H]1CC(O)C3(C)CCC12C3` (stereo not given in full): the GI50 in [1] is 18.2 µM (inactive); in assay [2], 18 µM (inactive); in assay [3] it was 18.1 µM (inactive); in [16], 16.6 µM (inactive); in [4], 26.4 µM (inactive); in [5] it was 16.6 µM (inactive). For the same compound, the GI50 in assay [6] was 17.1 µM (inactive); in [7], 18.2 µM (inactive); in [9], 21.3 µM (inactive); in [11], 25.8 µM (inactive); in assay [12], 32.1 µM (inactive); in [13], 16.9 µM (inactive). For the same compound, the GI50 was 15.4 µM (inactive) in [14] and 18.2 µM (inactive) in [15].

As for `CC1(C)COC2(OC1)C1=NS(=O)(=O)CC13CCC2C3(C)C` (stereo not given), the GI50 in assay [1], in assay [2], in assay [3], in assay [16], in [4] and in assay [5] was > 100 µM (inactive) throughout. The GI50 in assay [6], in [7], in assay [8], in [9], in assay [10] and in assay [11] was > 100 µM (inactive) each time. In addition, the GI50 in [12], in assay [13], in assay [14] and in assay [15] was > 100 µM (inactive) each time.

As to `COc1cccc(OC)c1/C=N\N1C(=O)c2ccccc2C1=O`, the GI50 was > 100 µM (inactive) in [1]; > 100 µM (inactive) in assay [2]; 49 µM (inactive) in [3]; 38.5 µM (inactive) in assay [16]; 33.6 µM (inactive) in assay [4]; 41.6 µM (inactive) in [6]. The GI50 in [7] is > 100 µM (inactive); in assay [8], 92.3 µM (inactive); in [9], 32.8 µM (inactive); in assay [11] it was 28.2 µM (inactive); in [12], 39.1 µM (inactive); in [13], 57.1 µM (inactive). Further, the results for the GI50 in assay [14] and in assay [15] were 58.5 µM (inactive) and 35.5 µM (inactive), respectively.

Take `CC1OC(n2cc(F)c(=O)[nH]c2=O)CCC1=O` (stereo not given): the GI50 in assay [1], in assay [2], in [3], in [16], in assay [4] and in assay [5] was > 100 µM (inactive) in each case. The GI50 was > 100 µM (inactive) in assay [6]; > 100 µM (inactive) in assay [7]; > 100 µM (inactive) in assay [8]; > 100 µM (inactive) in assay [9]; 79.4 µM (inactive) in [10]; 49.7 µM (inactive) in assay [11]. Besides, the GI50 was > 100 µM (inactive) in [12], > 100 µM (inactive) in assay [13], 88.1 µM (inactive) in assay [14] and 91 µM (inactive) in [15].

On to `COC(=O)CCc1ccc2c(c1)CC1(Cc3ccccc3C1)C2`, for which the GI50 in assay [1] was > 100 µM (inactive); in [3], > 100 µM (inactive); in assay [4], 34.6 µM (inactive); in assay [5], 74 µM (inactive); in [7], > 100 µM (inactive); in assay [8] it was > 100 µM (inactive). Besides, the GI50 in assay [10], in [11], in [12], in [13], in assay [14] and in [17] was > 100 µM (inactive) in each case. For the same compound, the GI50 in assay [18] and in assay [15] was > 100 µM (inactive) each time.

On to `O=c1[nH]ccc2c1ccn2C1CC(O)C(CO)O1` (stereo not given), for which the GI50 in [1], in [2], in assay [3], in [16], in assay [4] and in [5] was > 100 µM (inactive) throughout. In addition, the GI50 in assay [6], in [7], in assay [8], in assay [9], in [10] and in assay [11] was > 100 µM (inactive) each time. Moreover, the GI50 in [12], in assay [13], in assay [14] and in assay [15] was > 100 µM (inactive) throughout.

In the case of `COc1ccc(/C(=N/NC(N)=O)C(c2ccc(OC)cc2)C2C(=O)Oc3ccccc32)cc1` (stereo not given), the GI50 in [1], in [2], in assay [3], in assay [16], in assay [4] and in [5] was > 100 µM (inactive) throughout. The GI50 in [6], in assay [7], in assay [8], in [9], in [10] and in [11] was > 100 µM (inactive) each time. Also, the GI50 in assay [12], in assay [13], in assay [14] and in assay [15] was > 100 µM (inactive) in each case.

In the case of `Cc1ccc2[nH]c3c(C)c4c(c(C)c3c2c1)CN(C)C=C4`, the GI50 was 3.1 µM (inactive) in assay [1]; 0.52 µM (active) in assay [2]; 1.66 µM (inactive) in assay [3]; 0.152 µM (active) in assay [5]; 0.281 µM (active) in assay [6]; 2.53 µM (inactive) in assay [7]. Further, the GI50 in assay [8] was 0.423 µM (active); in assay [9], 1.61 µM (inactive); in assay [10] it was 0.285 µM (active); in assay [11], 5.35 µM (inactive); in [12], 1.42 µM (inactive); in assay [13], 0.186 µM (active). The GI50 in assay [14] was 3.93 µM (inactive); in assay [15], 2.46 µM (inactive).

With `CSc1nc(NC2OC(COC(C)=O)C(OC(C)=O)C(OC(C)=O)C2OC(C)=O)c2c(n1)OCC2=O` (stereo not given), the GI50 in assay [1], in assay [2], in [3], in assay [16], in [4] and in assay [5] was > 100 µM (inactive) throughout. The GI50 in [6], in [7], in assay [8], in assay [9], in [10] and in assay [11] was > 100 µM (inactive) throughout. For the same compound, the GI50 in [12], in assay [13], in [14] and in [15] was > 100 µM (inactive) in each case.

As to `O=C(Cc1ccccc1)NN1C(=O)/C(=C\c2cccc([N+](=O)[O-])c2)S/C1=N\c1ccccc1`, the GI50 in assay [1], in assay [2], in [3], in assay [6], in assay [19] and in [7] was > 100 µM (inactive) throughout. The GI50 in [8], in [10], in assay [11], in [12], in assay [13] and in assay [18] was > 100 µM (inactive) each time. Besides, the GI50 in [15] is > 100 µM (inactive).

`CCn1c2ccccc2c(=O)c2c(OC)ccc(OC)c21`: the GI50 in assay [1] is > 61.7 µM (inactive); in [2], 49.9 µM (inactive); in [3], 31.3 µM (inactive); in assay [16] it was 22.9 µM (inactive); in [4], 48 µM (inactive); in assay [5], 20.6 µM (inactive). Also, the GI50 is 32.8 µM (inactive) in assay [6]; 41.4 µM (inactive) in assay [7]; 53.8 µM (inactive) in [8]; 34.9 µM (inactive) in assay [9]; 55.7 µM (inactive) in assay [10]; 35.5 µM (inactive) in assay [11]. The GI50 in assay [12] was 37.2 µM (inactive); in assay [13] it was 42.5 µM (inactive); in assay [14], 36.1 µM (inactive); in assay [15], 64.3 µM (inactive).

(Values after ChEMBL document CHEMBL1201862, “PubChem BioAssay data set” (2004).)
